Data set [1] is described as follows: Half life in mouse liver microsomes at 1 uM after 60 mins by LC-MS/MS analysis. In kind it is ADME, Microsome.
Data set [2] has as its system Plasmodium falciparum. Put plainly: Antimalarial activity against chloroquine and mefloquine-resistant Plasmodium falciparum Dd2 assessed as [3H]-hypoxanthine incorporation after 48 hrs by liquid scintillation counting analysis. Type of data set: functional.
For data set [3], the system named is Mus musculus. Put plainly: Toxicity in Swiss mouse assessed as ruffled coat at 8 mg/kg administered for 4 days. Type of data set: organism-based. Details: dose 8 mg/kg. To be noted: in vivo, 96 h.
Data set [4] deals with Mus musculus. Put plainly: Toxicity in Swiss mouse assessed as whole body tremor at 16 mg/kg measured up to 2 hrs post compound administration. In kind it is organism-based. Set-up: dose 16 mg/kg. To be noted: in vivo.
Data set [5] relates to Plasmodium falciparum. Kind of data set: Antimalarial activity against chloroquine-sensitive Plasmodium falciparum 3D7 assessed as [3H]-hypoxanthine incorporation after 48 hrs by liquid scintillation counting analysis. Type of data set: functional, organism-based.
In a further data set the test system is NFF. Kind of data set: Cytotoxicity against human NFF after 72 hrs by SRB assay. In kind it is cell-based.
The nature of data set [6]: Solubility of the compound in phosphate buffered saline under neutral condition. To be noted: buffer. Type of data set: physicochemical.
The nature of data set [7]: Selectivity index, ratio of IC50 for human NFF to IC50 for chloroquine-sensitive Plasmodium falciparum 3D7.
Data set [8] concerns Plasmodium falciparum. Kind of data set: Antimalarial activity against chloroquine and mefloquine-resistant Plasmodium falciparum Dd2 assessed as growth inhibition. Type of data set: functional.
Data set [9] is described as follows: Intrinsic clearance in human liver microsomes at 1 uM after 60 mins by LC-MS/MS analysis. In kind it is ADME. The note with it: read-out: CLH.
Data set [10] has as its system Mus musculus. Put plainly: Toxicity in Swiss mouse assessed as lethargy at 16 mg/kg measured up to 2 hrs post compound administration. In kind it is organism-based. The note with it: in vivo. Details: dose 16 mg/kg.
Data set [11] can be described thus: Half life in human liver microsomes at 1 uM after 60 mins by LC-MS/MS analysis. Type of data set: ADME.
Data set [12] concerns Mus musculus. Kind of data set: Toxicity in Swiss mouse assessed as whole body tremor at 8 mg/kg administered for 4 days measured after 1 to 2 hrs of each dose. In kind it is organism-based. Details: dose 8 mg/kg. The note with it: in vivo.
The nature of data set [13]: Solubility of the compound in phosphate buffered saline under acidic condition. To be noted: buffer. Type of data set: physicochemical.
The nature of data set [14]: Intrinsic clearance in mouse liver microsomes at 1 uM after 60 mins by LC-MS/MS analysis. In kind it is ADME, Microsome. To be noted: read-out: CLH.
Data set [15] concerns Mus musculus. Put plainly: Toxicity in Swiss mouse assessed as ruffled coat at 16 mg/kg measured up to 2 hrs post compound administration. Type of data set: organism-based. Set-up: dose 16 mg/kg. To be noted: in vivo.
For data set [16], the system named is Plasmodium falciparum. Put plainly: Antimalarial activity against chloroquine-sensitive Plasmodium falciparum 3D7 assessed as growth inhibition. In kind it is functional, organism-based.
Data set [17] in a line: Selectivity index, ratio of IC50 for human NFF to IC50 for chloroquine and mefloquine-resistant Plasmodium falciparum Dd2.
The nature of data set [18]: Selectivity ratio of IC50 for chloroquine-sensitive Plasmodium falciparum 3D7 to IC50 for chloroquine and mefloquine-resistant Plasmodium falciparum Dd2. In kind it is functional.
Data set [19] has as its system Mus musculus. Kind of data set: Toxicity in Swiss mouse assessed as panting at 4 to 8 mg/kg measured up to 15 mins post compound administration. In kind it is organism-based. Set-up: dose 4-8 mg/kg. The note with it: in vivo, 0.25 h.
Data set [20] concerns Mus musculus. Kind of data set: Toxicity in Swiss mouse assessed as whole body tremor at 4 to 8 mg/kg measured up to 15 mins post compound administration. Type of data set: organism-based. Set-up: dose 4-8 mg/kg. To be noted: in vivo, 0.25 h.
Data set [21] concerns Mus musculus. Kind of data set: Toxicity in Swiss mouse assessed as whole body tremor at 4 to 8 mg/kg. The note with it: in vivo. Set-up: dose 4-8 mg/kg. In kind it is organism-based.
The test system of data set [22] is Mus musculus. Put plainly: Toxicity in Swiss mouse assessed as swollen conjuctiva of eyes at 4 to 8 mg/kg. In kind it is organism-based. Set-up: dose 4-8 mg/kg. The note with it: in vivo.
Data set [23] concerns Mus musculus. Kind of data set: Toxicity in Swiss mouse assessed as difficulty in movement at 4 to 8 mg/kg. To be noted: in vivo. Set-up: dose 4-8 mg/kg. In kind it is organism-based.
Data set [24] has as its system Mus musculus. Put plainly: Toxicity in Swiss mouse assessed as orange urine at 4 to 8 mg/kg. In kind it is organism-based. Details: dose 4-8 mg/kg. To be noted: in vivo.

`Cl.NCCc1c[nH]c2c1C(=O)C1=C(NC=CS1(=O)=O)C2=O`: the half-life at 1 µM in [1] came to 0.417 h; in data set [11], 0.617 h. Besides, the IC50 in the data set on Plasmodium falciparum [2] worked out at 24 nM; in the data set with Plasmodium falciparum [5], 104 nM; in the data set on NFF, 1500 nM; in the data set on Plasmodium falciparum [8], 6.6 nM; in the data set on Plasmodium falciparum [16], 51 nM. The Activity entry with Mus musculus [3], in the data set with Mus musculus [4], in the data set with Mus musculus [10], in the data set with Mus musculus [12] and in the data set with Mus musculus [15] was “Toxic” throughout. Further, the solubility entry in data set [6] and in [13] was “soluble” each time. Besides, the Ratio IC50 in data set [7] is 14; in data set [17], 60; in [18] it was 4.3. Further, the microsomal CLint at 1 µM came out at 46 µL/min/mg in [9] and 68 µL/min/mg in [14].
Take `Cl.Cn1cc(CCN)c2c1C(=O)C1=C(C2=O)S(=O)(=O)C=CN1`: the half-life at 1 µM in data set [1] and in data set [11] was over 4.17 h throughout. Moreover, the IC50 with Plasmodium falciparum [2] amounted to 57 nM; in the data set with Plasmodium falciparum [5], 128 nM; in the data set on NFF, 2310 nM. In addition, the solubility result in [6] and in data set [13] was “soluble” each time. Besides, the Ratio IC50 in data set [7] came out at 18; in data set [17] it was 40; in data set [18], 1.7. The microsomal CLint at 1 µM in [9] and in data set [14] was under 7 µL/min/mg in each case. Also, the Activity result with Mus musculus [19] and with Mus musculus [20] was “Toxic” throughout.
For `CCN(CC)CCCC(C)Nc1ccnc2cc(Cl)ccc12` (configuration not stated) [CHLOROQUINE], in the data set with NFF, the IC50 is 45900 nM.
In the case of `CNCCc1c[nH]c2c1C(=O)C1=C(NC=CS1(=O)=O)C2=O.Cl`, the half-life at 1 µM is 2.52 h in data set [1] and 1.67 h in data set [11]. For the same molecule, the 50% inhibitory concentration (IC50) with Plasmodium falciparum [2] came to 47 nM; in the data set on Plasmodium falciparum [5], 160 nM; in the data set with NFF, 1480 nM. Besides, the solubility result in data set [6] and in [13] was “soluble” in each case. Besides, the values for the Ratio IC50 in [7], in data set [17] and in data set [18] were 9, 31 and 3.4, respectively. The figures for the microsomal CLint at 1 µM in [9] and in data set [14] were 17 µL/min/mg and 11 µL/min/mg, respectively.
On to `CNCCc1cn(C)c2c1C(=O)C1=C(NC=CS1(=O)=O)C2=O.Cl`, for which the half-life at 1 µM in data set [1] and in data set [11] was over 4.17 h throughout. Moreover, the half-maximal inhibitory concentration (IC50) was 79 nM in the data set with Plasmodium falciparum [2], 137 nM in the data set on Plasmodium falciparum [5] and 2310 nM with NFF. Moreover, the Activity entry in the data set with Mus musculus [21], in the data set on Mus musculus [22], in the data set with Mus musculus [23] and in the data set on Mus musculus [24] was “Toxic” in each case. The solubility result in data set [6] and in data set [13] was “soluble” throughout. Also, the Ratio IC50 in data set [7] amounted to 17; in [17], 29; in [18], 1.7. Besides, the microsomal CLint at 1 µM in [9] and in [14] was under 7 µL/min/mg each time.
Regarding `Cn1cc(CCN)c2c1C(=O)C1=C(NC=CS1(=O)=O)C2=O`, the 50% inhibitory concentration (IC50) is 162 nM in the data set with Plasmodium falciparum [2], 416 nM in the data set with Plasmodium falciparum [5] and 13200 nM in the data set with NFF. Moreover, the figures for the Ratio IC50 in [7] and in data set [17] were 32 and 81, respectively.
